Like-named read-outs stand apart in the source and are kept apart here.
Target: KRas G12D/Q61H double mutant (Homo sapiens (Human), UniProt P01116, G12D/Q61H)
Assay: Ras GTP binding domain inhibition assay (labeled GTP)
Method in brief: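 Ni-plate capture of His-KRas (3-10 μg/ml, o/n, 4° C); Tris pH 7.5/MgCl2/DTT buffer, 1% DMSO. Cpd 20 μM or titration, 3 h RT. Cy3/Cy5-GTP 45 min RT, wash, fluorescence of bound GTP.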

[1] = 20 μM, read-out: KRas G12D Q61H % Inh.
[2] = 20 μM compound, read-out: % Inhibition at 20 μM KRas G12D Q61H
[3] = at 20 μM, read-out: KRas G12D Q61H % Inh.

Chain of KRas G12D/Q61H double mutant (P01116-2 other isoform, or with tags, fused parts or gaps G12D/Q61H): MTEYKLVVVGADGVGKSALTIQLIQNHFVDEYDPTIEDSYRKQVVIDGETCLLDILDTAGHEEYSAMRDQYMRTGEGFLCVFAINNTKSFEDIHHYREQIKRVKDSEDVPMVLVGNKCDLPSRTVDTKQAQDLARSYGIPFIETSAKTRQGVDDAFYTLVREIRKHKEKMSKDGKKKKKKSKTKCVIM

| Structure (SMILES) | inhibition at 20 µM [2] [%] | other results |
| --- | --- | --- |
| O=C(COc1ccccc1)N1CCCc2c(O)nc(-c3ccccn3)nc21 [drawing 2638] |  | inhibition at 20 µM [1]: 76 to 100% |
| COc1ccc(COCC(=O)N2CCCc3c(O)nc(-c4ccccn4)nc32)cc1 [drawing 2639] |  | inhibition at 20 µM [1]: 76 to 100%; IC50 (read-out: KRas G12D Q61H IC50): < 5 µM |
| CN(CC(=O)N1CCCc2c(O)nc(-c3ccccn3)nc21)S(=O)(=O)c1ccccc1 [drawing 2641] |  | inhibition at 20 µM [1]: 1 to 25% |
| CS(=O)(=O)N1CCCc2cc(C(=O)N3CCCc4c(O)nc(-c5ccccn5)nc43)ccc21 [drawing 2645] |  | inhibition at 20 µM [1]: 25 to 50% |
| CS(=O)(=O)c1cccc(C(=O)N2CCCc3c(O)nc(-c4ccccn4)nc32)c1 [drawing 2647] | 51 to 75 | IC50 (serial dilution, read-out: KRas G12D Q61H (classes E-H, IC50)): 5 to 10 µM |
| COCCCC(=O)N1CCCc2c(O)nc(-c3ccccn3)nc21 [drawing 2648] | 51 to 75 |  |
| O=C(c1cocn1)N1CCCc2c(O)nc(-c3ccccn3)nc21 [drawing 2649] | 25 to 50 |  |
| CS(=O)(=O)CCCC(=O)N1CCCc2c(O)nc(-c3ccccn3)nc21 [drawing 2650] | 51 to 75 |  |
| O=S(=O)(CCc1ccccc1)N1CCCc2c(O)nc(-c3ccccn3)nc21 [drawing 2651] | 0 |  |
| O=S(=O)(c1ccccc1)N1CCCc2c(O)nc(-c3ccccn3)nc21 [drawing 2652] | 1 to 25 |  |
| Nc1nc(O)c2scc(Br)c2n1 [drawing 2657] | 1 to 25 |  |
| CC1CCN(C(=O)c2csc3c(O)nc(N)nc23)CC1 [drawing 2658] | 1 to 25 |  |
| COCC1CCN(C(=O)c2csc3c(O)nc(N)nc23)CC1 [drawing 2659] | 1 to 25 |  |
| CCOCCC1CCN(C(=O)c2csc3c(O)nc(N)nc23)CC1 [drawing 2660] | 1 to 25 |  |
| COCCCC1CCN(C(=O)c2csc3c(O)nc(N)nc23)CC1 [drawing 2661] | 25 to 50 |  |
| Nc1nc(O)c2scc(C(=O)N3CCC(N4CCOCC4)CC3)c2n1 [drawing 2662] | 1 to 25 |  |
| Nc1nc(O)c2scc(C(=O)N3CCC(N4CCCC4=O)CC3)c2n1 [drawing 2663] | 25 to 50 |  |
| CCOC(=O)NC1CCN(C(=O)c2csc3c(O)nc(N)nc23)CC1 [drawing 2667] | 1 to 25 |  |
| Nc1nc(O)c2scc(C(=O)N(CCO)CCOCCO)c2n1 [drawing 2669] | 1 to 25 |  |
| Nc1nc(O)c2scc(C(=O)NCCc3cccnc3)c2n1 [drawing 2670] | 1 to 25 |  |
| Nc1nc(O)c2scc(C(=O)N3CCc4ccccc4CC3)c2n1 [drawing 2671] | 1 to 25 |  |
| COc1cc2c(cc1OC)CCN(C(=O)c1csc3c(O)nc(N)nc13)CC2 [drawing 2672] | 25 to 50 |  |
| CC1CCN(C(=O)c2csc3c(O)nc(-c4ccccn4)nc23)CC1 [drawing 2674] | 51 to 75 |  |
| COCC1CCN(C(=O)c2csc3c(O)nc(-c4ccccn4)nc23)CC1 [drawing 2675] | 25 to 50 |  |
| CCOCCC1CCN(C(=O)c2csc3c(O)nc(-c4ccccn4)nc23)CC1 [drawing 2676] | 51 to 75 |  |
| COCCCC1CCN(C(=O)c2csc3c(O)nc(-c4ccccn4)nc23)CC1 [drawing 2677] | 51 to 75 |  |

| Structure (SMILES) | inhibition at 20 µM [2] [%] | other results |
| --- | --- | --- |
| O=C(c1csc2c(O)nc(-c3ccccn3)nc12)N1CCC(N2CCOCC2)CC1 [drawing 2678] | 25 to 50 |  |
| CCOC(=O)NC1CCN(C(=O)c2csc3c(O)nc(-c4ccccn4)nc23)CC1 [drawing 2685] | 51 to 75 |  |
| COCCOCCN(C)C(=O)c1csc2c(O)nc(-c3ccccn3)nc12 [drawing 2686] | 51 to 75 |  |
| CN(CCc1ccncc1)C(=O)c1csc2c(O)nc(-c3ccccn3)nc12 [drawing 2688] | 25 to 50 |  |
| O=C(c1csc2c(O)nc(-c3ccccn3)nc12)N1CCc2ccccc2CC1 [drawing 2690] | 25 to 50 |  |
| COc1cc2c(cc1OC)CCN(C(=O)c1csc3c(O)nc(-c4ccccn4)nc13)CC2 [drawing 2691] | 51 to 75 |  |
| Nc1nc(O)c2scc(-c3ccccc3)c2n1 [drawing 2692] | 1 to 25 |  |
| Nc1nc(O)c2scc(-c3ccccc3Cl)c2n1 [drawing 2693] | 1 to 25 |  |
| Oc1nc(-c2ccccn2)nc2[nH]cnc12 [drawing 2696] | 25 to 50 |  |
| Oc1nc(-c2ccccn2)nc2c1ncn2-c1ccccn1 [drawing 2698] | 25 to 50 |  |
| COc1ccc(COCC(=O)Nc2ccnc(-c3ccccn3)n2)cn1 [drawing 2699] | 25 to 50 |  |
| N#Cc1ccc(CC(=O)Nc2ccnc(-c3ccccn3)n2)cc1 [drawing 2700] | 25 to 50 |  |
| Brc1csc2nc(-c3ccccn3)nc(N3CCOCC3)c12 [drawing 2701] | 1 to 25 |  |
| c1ccc(-c2nc(N3CCOCC3)c3ccsc3n2)nc1 [drawing 2702] | 51 to 75 |  |
| CCN(CC)CCC(C)Nc1nc(-c2ccccn2)nc2sccc12 (centres unmarked) [drawing 2706] | 25 to 50 |  |
| Clc1csc2nc(-c3ccccn3)nc(N3CCOCC3)c12 [drawing 2707] | 1 to 25 |  |
| Oc1nc(-c2ccccn2)nc2c(C3CCNCC3)csc12 [drawing 2711] | 51 to 75 |  |
| COc1ccccc1N1CCN(C(=O)c2csc3c(O)nc(-c4ccccn4)nc23)CC1 [drawing 2712] | 25 to 50 |  |
| O=C(c1csc2c(O)nc(-c3ccccn3)nc12)N1CCN(c2ccccc2Cl)CC1 [drawing 2718] | 51 to 75 |  |
| O=C(c1csc2c(O)nc(-c3ccccn3)nc12)N1CCN(c2cccc(Cl)c2)CC1 [drawing 2719] | 25 to 50 |  |
| O=C(c1csc2c(O)nc(-c3ccccn3)nc12)N1CCN(c2ccccc2F)CC1 [drawing 2721] | 25 to 50 |  |
| N#Cc1ccccc1N1CCN(C(=O)c2csc3c(O)nc(-c4ccccn4)nc23)CC1 [drawing 2722] | 1 to 25 |  |
| COc1ccc(CN2CCN(C(=O)c3csc4c(O)nc(-c5ccccn5)nc34)CC2)cc1 [drawing 2725] | 25 to 50 |  |
| COc1cccc(C2CN(C(=O)c3csc4c(O)nc(-c5ccccn5)nc34)CCO2)c1 (centres unmarked) [drawing 2729] | 25 to 50 |  |
| O=C(c1csc2c(O)nc(-c3ccccn3)nc12)N1CCOC(c2ccc(Cl)cc2)C1 (centres unmarked) [drawing 2730] | 25 to 50 |  |
| O=C(c1csc2c(O)nc(-c3ccccn3)nc12)N1CCNC(c2cccc(F)c2)C1 (centres unmarked) [drawing 2737] | 25 to 50 |  |

| Structure (SMILES) | inhibition at 20 µM [2] [%] | other results |
| --- | --- | --- |
| FC(F)(F)c1csc2nc(-c3ccccn3)nc(N3CCOCC3)c12 [drawing 2741] | 1 to 25 |  |
| O=C(NCCc1ccc(O)nc1)c1csc2nc(-c3ccccn3)nc(N3CCOCC3)c12 [drawing 2809] | 1 to 25 |  |
| O=C(NCCc1cnc(O)nc1)c1csc2nc(-c3ccccn3)nc(N3CCOCC3)c12 [drawing 2810] | 1 to 25 |  |
| CS(=O)(=O)CCCNC(=O)c1csc2nc(-c3ccccn3)nc(N3CCOCC3)c12 [drawing 2811] | 1 to 25 |  |
| COCCN(CCOC)c1nc(-c2ccccn2)nc2scc(C(=O)NCCc3cnc(O)nc3)c12 [drawing 2812] | 1 to 25 |  |
| COc1cc(COCC(=O)Nc2ccnc(-c3ccccn3)n2)ccn1 [drawing 2813] | 25 to 50 |  |
| Cc1cnc(-c2ccccn2)nc1NC(=O)Cc1ccc(C#N)cc1 [drawing 2814] | 1 to 25 |  |
| Cc1cnc(-c2ccccn2)nc1NC(=O)COCc1ccc(C#N)cc1 [drawing 2815] | 25 to 50 |  |
| Cc1cnc(-c2ccccn2)nc1NC(=O)COCc1ccnc(O)c1 [drawing 2816] | 25 to 50 |  |
| N#Cc1ccc(CC(=O)Nc2nc(-c3ccccn3)nc3sccc23)cc1 [drawing 2817] | 1 to 25 |  |
| COc1ccc2c(c1)CCC2C(=O)Nc1nc(-c2ccccn2)nc2sccc12 (centres unmarked) [drawing 2818] | 1 to 25 |  |
| N#Cc1csc2nc(-c3ccccn3)nc(N3CCOCC3)c12 [drawing 2819] | 25 to 50 |  |
| COc1cc(N2CCN(C(=O)c3csc4c(O)nc(-c5ccccn5)nc34)CC2)ccc1O [drawing 2820] | 1 to 25 |  |
| Nc1nc(-c2ccccn2)nc2sccc12 [drawing 2821] | 25 to 50 |  |
| Nc1nc(-c2ccccn2)nc2scc(-c3ccccc3)c12 [drawing 2822] | 1 to 25 |  |
| COC(=O)c1csc2c(O)nc(-c3ccccn3)nc12 [drawing 2823] | 1 to 25 |  |
| COc1cnc(CNC(=O)Cn2cnc3nc(-c4ccccn4)nc(N4CCOCC4)c32)[nH]c1=O [drawing 2824] | 1 to 25 |  |
| COc1cccc(OCCn2c(CN3CCCCC3)nc3ccccc32)c1 [drawing 3032] | 25 to 50 |  |
| COc1cccc(OCCn2c(CN3CCCCC3)nc3ccccc32)c1 [drawing 3033] |  | % Inhibition at 20 μM KRas G12D Q61H (20 μM compound): B (B = 25-50% inhibition) |
| O=C(Cc1ccc2c(c1)OCCO2)Nc1nc(-c2ccccn2)cs1 [drawing 3246] |  | inhibition at 20 µM (20 μM compound, KRas G12D/Q61H double mutant, read-out: % Inhibition at 20 μM of K-Ras mutant and wild-type protein, KRas G12D Q61H): 1 to 25% |
| O=C(Cc1ccc2c(c1)OCCO2)Nc1nc(-c2ccccn2)cs1 [drawing 3247] |  | % Inhibition at 20 μM of K-Ras mutant and wild-type protein, KRas G12D Q61H (20 μM compound, KRas G12D/Q61H double mutant): A (1-25% inhibition) |
| Oc1nc(-c2ccccn2)nc2c(-c3cnc4ccccc4c3)csc12 [drawing 3780] |  | inhibition at 20 µM [3]: 25 to 50% |
| Cc1cc2nc(-c3ccccn3)nc(O)c2s1 [drawing 3791] |  | inhibition at 20 µM [3]: 51 to 75% |
| COC(=O)c1c(C)sc2nc(-c3ccccn3)nc(N)c12 [drawing 3804] |  | inhibition at 20 µM [3]: 51 to 75% |
| COc1cnc(CNC(=O)c2c(C)sc3c(O)nc(-c4ccccn4)nc23)[nH]c1=O [drawing 3841] |  | inhibition at 20 µM [3]: 0% |
| O=C(c1csc2c(O)nc(-c3ccccn3)nc12)N1CCNC(c2ccc(Cl)cc2)C1 (centres unmarked) [drawing 3843] |  | inhibition at 20 µM [3]: 25 to 50% |
